Laboratory results reported in US7417144B2, “Factor Xa inhibitors” (Hoffman-La Roche Inc., priority 2005, dated 2008).

These molecules were tested against T1, human factor Xa (Homo sapiens, UniProt P00742) (assay: Factor Xa chromogenic peptide substrate (S-2222) assay). Details: apparent Ki from IC50 by Cheng-Prusoff; enzyme 3 nM, substrate S-2222, pH 7.8, room temperature.
T1 construct: purchased Enzyme Research Laboratories
Assay type: biochemical
Procedure: Factor Xa activity was measured spectrophotometrically in microtiter plates in a final volume of 150 μl using the following conditions: Inhibition of human factor Xa (Enzyme Research Laboratories) was tested at an enzyme concentration of 3 nM using the chromogenic substrate S-2222 (Chromogenix AB, Mölndal, Sweden) at […]. The reaction kinetics of the enzyme and the substrate were linear with both time and the enzyme concentration. The inhibitors were dissolved in DMSO and tested at various concentrations up to 100 μM. The inhibitors were diluted using HNPT buffer consisting of HEPES 100 mM, NaCl 140 mM, PEG 6000 0.1% and Tween 80 0.02%, pH 7.8. The cleavage of S-2222 by human factor Xa was followed at 405 nm for 5 minutes at room temperature. The velocity of the reaction was determined by the autoreader from the slope of the linear regression fit to 7 time points (1 minute). The initial velocity for each inhibitor concentration was determined by the slope of at least 4 time points in the linear phase by a linear regression fit […]. Apparent dissociation constants Ki were calculated according to Cheng and Prusoff [Cheng, Y. C.; Prusoff, W. H. Relationship between the inhibition constant (Ki) and the concentration of the inhibitor that causes 50 percent inhibition (IC50) of an enzyme reaction. Biochem. Pharmacol. 1973, 22, 3099-3108.] based on the IC50 and the respective Km, determined previously (Ki=IC50/(1+S/Km)). The Km for the substrate used was determined under the conditions of the test with at least 5 substrate concentrations ranging from 0.5 to 15 times Km. [Lottenberg R, Hall J A, Blinder M, Binder E P, Jackson C M., The action of thrombin on peptide p-nitroanilide substrates. Substrate selectivity and examination of hydrolysis under different reaction conditions. Biochim Biophys Acta. 1983 Feb. 15; 742(3):539-57]. According to Eadie [Eadie G.S. The inhibition of cholinesterase by physostigmine and prostigmine. J. Biol. Chem. 1942, 146, 85-93.], the Km for S-2222 amounted to 613 μM.

T1 sequence (P00742 235-488 limits assumed): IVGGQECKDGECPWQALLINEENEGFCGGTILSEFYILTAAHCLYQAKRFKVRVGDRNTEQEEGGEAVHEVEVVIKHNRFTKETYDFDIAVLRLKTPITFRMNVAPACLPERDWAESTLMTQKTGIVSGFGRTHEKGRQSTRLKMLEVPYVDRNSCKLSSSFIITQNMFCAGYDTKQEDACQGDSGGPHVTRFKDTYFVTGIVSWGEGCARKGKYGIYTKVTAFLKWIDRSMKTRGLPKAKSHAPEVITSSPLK
T1 sequence (P00742 41-179 partner limits assumed): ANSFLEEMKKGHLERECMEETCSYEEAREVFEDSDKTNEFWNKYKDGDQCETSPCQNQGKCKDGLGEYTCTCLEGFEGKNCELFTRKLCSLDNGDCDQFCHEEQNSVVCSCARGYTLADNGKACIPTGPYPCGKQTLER

Structure (SMILES)	Ki [nM]
Cn1ncc2c1CN(C(=O)Nc1ccc(Cl)cn1)[C@H]2C(=O)Nc1ccc(-n2ccccc2=O)cc1F [Example 3, (R)-1-Methyl-4,6-dihydro-1H-pyrrolo[3,4-c]pyrazole-4,5-dicarboxylic acid 5-[(5-chloro-pyridin-2-yl)-amide]4-{[2-fluoro-4-(2-oxo-2H-pyridin-1-yl)-phenyl]-amide}]	19
O=C(Nc1ccc(-n2ccccc2=O)cc1F)C1Cc2cccnc2CN1C(=O)Nc1ccc(Cl)cc1 (stereo not drawn) [Example 18, 5,8-Dihydro-6H-[1,7]naphthyridine-6,7-dicarboxylic acid 7-[(4-chloro-phenyl)-amide]6-{[2-fluoro-4-(2-oxo-2H-pyridin-1-yl)-phenyl]-amide}]	12
O=C(Nc1ccc(-n2ccccc2=O)cc1F)C1Cc2cccnc2N1C(=O)Nc1ccc(Cl)cc1 (stereo not drawn) [Example 16, 2,3-Dihydro-pyrrolo[2,3-b]pyridine-1,2-dicarboxylic acid 1-[(4-chloro-phenyl)-amide]2-{[2-fluoro-4-(2-oxo-2H-pyridin-1-yl)-phenyl]-amide}]	51
